Assay results as given in patent USRE48077E1, “Methods of treating ototoxicity” (Anida Pharma Inc., priority 2013, dated 2020).
Where two headings read alike, the source gives them in different places.

How the values were obtained:
Assay type in all cases: cell-based, mouse
[1] = system: NOX3; assay: Immunofluorescence staining of stress and inflammatory markers: NOX3
Procedure: (§1) The cultures were kept at 33° C. in an incubator with 10% CO2. Detection of stress and inflammatory markers in UB/OC-1 cells was performed by immunofluorescence staining. UB/OC-1 cells were first plated in a 12 well plate. […] After the treatment, the cells were fixed with 4% paraformaldehyde (Sigma, St. Louis, Mo.), followed by washing once with phosphate buffered saline (PBS). Coverslips were then incubated with solution A—5% donkey serum (Jackson Immuno Laboratories, West Grove, Pa.) and 0.5% Triton-X (Sigma, St. Louis, Mo.) in PBS for 30 min at room temperature. Double immunostaining for different markers NOX3, iNOS, TRPV1 or TNF-α (1:300 dilution) in solution A was performed overnight at 4° C. Secondary antibody mix was then added and incubated for 1 h at 37° C. After 3 washes with PBS and two washes with fresh distilled water the coverslips were mounted on glass slides using Vectashield mounting medium containing DAPI (Vector Laboratories, Inc. Burlingame, Calif.) for nuclear staining, before imaging under an LEICA confocal microscope (Buffalo Grove, Ill.).

[2] = system: reactive oxygen species (ROS) in UB/OC-1 cells; assay: ROS generation by CellROX green staining, confocal imaging
Procedure: The cultures were kept at 33° C. in an incubator with 10% CO2. UB/OC1 cells were cultured on glass coverslips in 12-well culture plates. […] The cells were then washed once with phosphate buffered saline (PBS), and fixed in 4% paraformaldehyde for 15 minutes. The coverslips were then mounted with DAPI containing Vectashield (Vector Labs, Burlingame, Calif.).

[3] = system: UB/OC-1 cells; assay: Cell viability by MTS assay (CellTiter 96 AQueous One Solution Cell Proliferation Assay), with and without cisplatin-induced damage; conditions: 24 hours
Procedure: In the examples described herein, UB/OC-1 cells, or immortalized organ of Corti cells derived from the mouse, were utilized to examine the activity of NPD1 in the context of ototoxic damage. […] The cultures were kept at 33° C. in an incubator with 10% CO2. […] In brief, 3,500 cells per well were seeded into a 96-well plate. […] NPD1 treatment of 1-100 nM concentrations was tested in 3 independent experiments. A cell proliferation assay was performed by using Cell-Titer 96® AQueous One Solution Cell Proliferation Assay Kit (Promega, Madison, Wis.), according to the manufacturer's instructions. After 24 hours, 20 μl of CellTiter 96 AQueous One Solution reagent was added to each well in 100 μl of total volume of media. Cells were incubated for 3 to 4 hours, and absorbance was recorded at 490 nm using an ELISA plate reader. The absorbance is directly proportional to the number of living cells and is expressed as a percent relative to vehicle-treated cells.

[4] = system: iNOS; assay: Immunofluorescence staining of stress and inflammatory markers: iNOS
Procedure: as §1

[5] = system: UB/OC-1 cells; assay: Cell survival by FITC-AnnexinV/propidium iodide apoptosis detection, flow cytometry; conditions: for viability at 0.001 µM / viability at 0.01 µM / viability at 0.1 µM: Mus musculus
Procedure: (§2) The cultures were kept at 33° C. in an incubator with 10% CO2. Cell survival after NPD1 treatment was also analyzed in UB/OC-1 cells in the presence or absence of damage. Specifically, cell death via apoptosis was determined by using FITC-AnnexinV Apoptosis detection kit (BD Pharmingen, San Diego, Calif., USA) and quantified by flow cytometry. In brief, 3,500 UB/OC-1 cells per well were seeded into a 96-well plate. […] At the end of the treatment time, UB/OC-1 cells were washed once with phosphate buffered saline (PBS) and harvested in a 0.5% trypsin/EDTA solution at 37° C., centrifuged at 220×g for 5 min and then immediately resuspended in the physiological buffer provided in the kit. […] The results were quantified using the CellQuest software (BD Biosciences, San Jose, Calif.). Data are expressed as percent viable (non-apoptotic cells) with the number of cells seeded into each well used as 100%. Three independent experiments were performed.

[6] = as above; conditions: mouse, no cisplatin; for viability at 1 nM: NPD1 1 nM alone; for viability at 10 nM: NPD1 10 nM alone; for viability at 100 nM: NPD1 100 nM alone
Procedure: as §2

[7] = system: TNFα; assay: Immunofluorescence staining of stress and inflammatory markers: TNFα
Procedure: as §1

[8] = system: TRPV-1; assay: Immunofluorescence staining of stress and inflammatory markers: TRPV-1
Procedure: as §1

[9] = NPD1 at 1 nM, 10 nM and 100 nM 30 minutes, then cisplatin 2.5 μM 24 hours
[10] = average of three experiments, read-out: Cell Viability Avg.
[11] = read-out: Set II Cell Viability
[12] = read-out: Set III Cell Viability
[13] = NPD1 (1, 10, 100 nM; particularly at 10 nM) 30 minutes, then cisplatin 2.5 μM 24 hours
[14] = cisplatin only 2.5 μM, 24 hours

With CC/C=C\C[C@H](O)\C=C/C=C/C=C/[C@H](O)C/C=C\C/C=C\CCC(=O)[O-].[Na+] [NPD1, Sodium (4Z,7Z,10R,11E,13E,15Z,17S,19Z)-10,17-dihydroxydocosa-4,7,11,13,15,19-hexaenoate] the “NOX3 expression (staining)” value [1, 9] was “significant decrease”, the ROS staining ([2]; NPD1 1 nM and 10 nM pre-treatment 30 minutes, then cisplatin 2.5 μM 30 minutes) was “decreased ROS staining” and the ROS staining ([2]; NPD1 alone, no cisplatin) was “very little or no ROS staining”. For the same compound, the cell viability ([3]; NPD1 1 nM-100 nM with cisplatin 20 μM, percent relative to vehicle-treated cells) was “over 95%”, the cell viability ([3]; NPD1 at all tested concentrations (1 pM-100 nM) with cisplatin 20 μM, percent relative to vehicle-treated cells) was “over 80%” and the “iNOS expression (staining)” value [4, 9] was “significant decrease”. For the same compound, the viability at 0.001 µM ([5]; read-out: Cell Viability Avg., NPD1 1 nM, 30 minutes later cisplatin 20 μM for 24 h, average of three experiments) was 87.6%, the viability at 0.01 µM ([5]; read-out: Cell Viability Avg., NPD1 10 nM, 30 minutes later cisplatin 20 μM for 24 h, average of three experiments) was 88.8% and the viability at 0.1 µM ([5]; read-out: Cell Viability Avg., NPD1 100 nM, 30 minutes later cisplatin 20 μM for 24 h, average of three experiments) was 89.2%. The viability at 0.001 µM ([5]; read-out: Set I Cell Viability, NPD1 1 nM, 30 minutes later cisplatin 20 μM for 24 h) was 85%, the viability at 0.01 µM ([5]; read-out: Set I Cell Viability, NPD1 10 nM, 30 minutes later cisplatin 20 μM for 24 h) was 84% and the viability at 0.1 µM ([5]; read-out: Set I Cell Viability, NPD1 100 nM, 30 minutes later cisplatin 20 μM for 24 h) was 90%. For the same compound, the viability at 0.001 µM ([5]; read-out: Set II Cell Viability, NPD1 1 nM, 30 minutes later cisplatin 20 μM for 24 h) was 83%, the viability at 0.01 µM ([5]; read-out: Set II Cell Viability, NPD1 10 nM, 30 minutes later cisplatin 20 μM for 24 h) was 86% and the viability at 0.1 µM ([5]; read-out: Set II Cell Viability, NPD1 100 nM, 30 minutes later cisplatin 20 μM for 24 h) was 80%. The viability at 0.001 µM ([5]; read-out: Set III Cell Viability, NPD1 1 nM, 30 minutes later cisplatin 20 μM for 24 h) was 94.9%, the viability at 0.01 µM ([5]; read-out: Set III Cell Viability, NPD1 10 nM, 30 minutes later cisplatin 20 μM for 24 h) was 96.5% and the viability at 0.1 µM ([5]; read-out: Set III Cell Viability, NPD1 100 nM, 30 minutes later cisplatin 20 μM for 24 h) was 97.6%. For the same compound, the cell survival ([5]; NPD1 treatment in cisplatin-induced damaged cells) was “over 96%”, the viability at 1 nM [6, 10] was 96.8% and the viability at 1 nM ([6]; read-out: Set I Cell Viability) was 96%. It also gave a viability at 1 nM [6, 11] of 96%, a viability at 1 nM [6, 12] of 98.5% and a viability at 10 nM [6, 10] of 96.9%. The viability at 10 nM ([6]; read-out: Set I Cell Viability) was 96%, the viability at 10 nM [6, 11] was 97% and the viability at 10 nM [6, 12] was 97.7%. The viability at 100 nM [6, 10] was 96.2%, the viability at 100 nM ([6]; read-out: Set I Cell Viability) was 91% and the viability at 100 nM [6, 11] was 98%. For the same compound, the viability at 100 nM [6, 12] was 99.5%, the “TNFα expression (staining)” value [7, 13] was “decrease” and the “TRPV-1 expression (staining)” value [8, 13] was “decrease”.

In the case of N.N.[Cl][Pt][Cl] [cisplatin, reference compound], the NOX3 staining [1, 14] is reported as “increased staining”, the ROS staining ([2]; cisplatin 2.5 μM alone, 30 minutes) is reported as “ROS staining in the cytoplasm of the cell” and the cell viability ([3]; cisplatin 20 μM alone) is reported as “reduced cell viability”. For the same compound, the iNOS staining [4, 14] was “increased staining”, the TNFα staining [7, 14] was “increased staining” and the TRPV-1 staining [8, 14] was “increased staining”.
